In patent publication US5283353A, “Preparation of 1-amino-1-deoxyoligosaccharides and derivatives thereof” (Genzyme Corporation, priority 1990, dated 1994):
Read-outs that look alike come from different tables or passages of the source.

Legend:
[1] = Hydrolysis of 1-amino-1-deoxy-N-acetylglucosamine to 2-acetamido-2-deoxy-D-glucose in 50 mM phosphate p2H 7.0 buffer, followed by 1H NMR; type: physicochemical; settings: for Pseudo-first order rate constant for hydrolysis: calculated
Experimental: To a solution of 1 mg of turkey ovomucoid glycopeptide (a heterogeneous mixture of three structurally related complex type oligosaccharides purified as described by E. M. Taga et al., Biochemistry, 23, 815-822 (1984)) in 50 mM phosphate, p^2 H 7.0 buffer in 99.96% ^2 H2 O equilibrated at the desired temperature was added the almond amidohydrolase enzyme to give a total volume of 0.5 ml. The reaction was followed by ^1 H NMR. The hydrolysis of 1-amino-1-deoxy-N-acetylglucosamine in 50 mM phosphate, p^2 H 7.0, buffer in 99.96% ^2 H2 O to 2-acetamido-2-deoxy-D-glucose was followed by ^1 H NMR as a reference compound. The proton peaks of interest were integrated and the pseudo first-order rate constant was calculated from the slope of a plot of the natural logarithm of the peak area as a function of time.
The rate of hydrolysis for the model compound was readily measured using ^1 H NMR. Upon hydrolysis, the ^1 H NMR signal for the anomeric proton of the model compound shifts downfield from 4.189 ppm (J1,2 =9.35 Hz) to 5.195 ppm (J1,2 =3.38 Hz) and 4.709 ppm (J1,2 =3.38 Hz), the former the alpha-anomer and the latter the beta-anomer of the product, N-acetylglucosamine, while the chemical shift of the N-acetyl group is unchanged. The pseudo-first order rate constants for the enzyme-catalyzed reaction and for the hydrolysis of the model compound are given in Table I; based on least squares standard error analysis, the precision in the pseudo-first order rate constant is ±5%. These limited data give energies of activation for the enzyme-catalyzed reaction of 9.5 kcal […] and for the model compound of 17.7 kcal mol^1.

[2] = cited from earlier work

SMILES: CC(=O)N[C@@H]1[C@@H](O)[C@H](O)[C@@H](CO)O[C@H]1N [1-Amino-N-acetylglucosamine, 1-amino-1-deoxy-N-acetylglucosamine]
- Pseudo-first order rate constant for hydrolysis ([1]; p2H 7.0, 24 °C): 1.08 10^3 × k (min^-1)
- Pseudo-first order rate constant for hydrolysis ([1]; p2H 7.0, 39 °C): 4.56 10^3 × k (min^-1)
- Energy of activation for hydrolysis of the model compound ([1]; p2H 7.0, from rate constants of Table I): 17.7 kcal mol^1
- Pseudo-first order rate constant for hydrolysis ([2]; p2H 7.0, 22 °C): 0.88 10^3 × k (min^-1)
- Pseudo-first order rate constant for hydrolysis ([2]; p2H 7.0, 37 °C): 3.81 10^3 × k (min^-1)
